Data: PMC7797525 (iScience, 2020)

Legend:
[1] = target: T1, RecA (Escherichia coli, UniProt P0A7G6, Y104A); assay: isothermal titration calorimetry; format: binding
T1 sequence (P0A7G6 2-353 Y104A): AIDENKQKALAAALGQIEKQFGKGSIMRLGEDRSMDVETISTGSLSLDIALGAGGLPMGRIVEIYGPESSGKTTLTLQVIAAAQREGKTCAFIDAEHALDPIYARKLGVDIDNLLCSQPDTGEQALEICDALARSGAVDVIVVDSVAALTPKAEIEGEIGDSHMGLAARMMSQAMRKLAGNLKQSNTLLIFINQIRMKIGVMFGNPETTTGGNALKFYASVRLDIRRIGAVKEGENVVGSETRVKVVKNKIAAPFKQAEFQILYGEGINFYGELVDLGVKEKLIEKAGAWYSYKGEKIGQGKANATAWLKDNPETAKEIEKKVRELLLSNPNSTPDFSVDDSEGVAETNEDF

[2] = target: T2, RecA (Escherichia coli, UniProt P0A7G6); assay: isothermal titration calorimetry; format: binding
T2 sequence (P0A7G6 2-353): T1 sequence (P0A7G6 2-353 Y104A)

| SMILES | Kd [1] [µM] | Kd [2] [µM] |
| --- | --- | --- |
| Cc1ccc(C(=O)Nc2ccc(S(=O)(=O)O)c3cc(S(=O)(=O)O)cc(S(=O)(=O)O)c23)cc1NC(=O)c1cccc(NC(=O)Nc2cccc(C(=O)Nc3cc(C(=O)Nc4ccc(S(=O)(=O)O)c5cc(S(=O)(=O)O)cc(S(=O)(=O)O)c45)ccc3C)c2)c1 [cpd01, suramin] | 40.2 | 17.6 |
| COc1cc(-c2ccc(N=Nc3ccc4c(S(=O)(=O)O)cc(S(=O)(=O)O)c(N)c4c3O)c(OC)c2)ccc1N=Nc1ccc2c(S(=O)(=O)O)cc(S(=O)(=O)O)c(N)c2c1O [s05, Chicago sky blue] | – | 18.8 |
| Cc1cc(-c2ccc(/N=N/c3ccc4c(S(=O)(=O)O)cc(S(=O)(=O)O)c(N)c4c3O)c(C)c2)ccc1/N=N/c1ccc2c(S(=O)(=O)O)cc(S(=O)(=O)O)c(N)c2c1O [s06, Evans blue] | – | 11.5 |
